Data from ChEMBL document CHEMBL1153884, “Oligonucleotide-polyamine conjugates: influence of length and position of 2'-attached polyamines on duplex stability and antisense effect” (2009).

Columns and labels:
[1] = Antisense effect in human 607B cells assessed as down-regulation of bcl2 expression at 100 nM after 48 hrs by Western blot analysis relative to control; type: functional
[2] = test system: Nucleic Acid; experiment: Duplex stability of RNA counter strand assessed as melting temperature; type: nucleic-acid assay
[3] = test system: Nucleic Acid; experiment: Duplex stability of DNA counter strand assessed as melting temperature; type: nucleic-acid assay

| Structure (SMILES) | Activity [1] [%] | Tm [2] [°C] | Tm [3] [°C] |
| --- | --- | --- | --- |
| Cc1cn([C@H]2C[C@H](OP(O)(=S)OC[C@H]3O[C@@H](n4cnc5c(N)ncnc54)[C@H](O)[C@@H]3OP(O)(=S)OC[C@H]3O[C@@H](n4ccc(N)nc4=O)[C@H](O)[C@@H]3OP(O)(=S)OC[C@H]3O[C@@H](n4ccc(N)nc4=O)[C@H](O)[C@@H]3OP(O)(=S)OC[C@H]3O[C@@H](n4cnc5c(=O)[nH]c(N)nc54)[C@H](O)[C@@H]3OP(O)(=S)OC[C@H]3O[C@@H](n4ccc(N)nc4=O)[C@H](O)[C@@H]3OP(O)(=S)OC[C@H]3O[C@@H](n4cnc5c(=O)[nH]c(N)nc54)[C@H](O)[C@@H]3OP(O)(=S)OC[C@H]3O[C@@H](n4cc(C)c(=O)[nH]c4=O)C[C@@H]3OP(O)(=S)OC[C@H]3O[C@@H](n4cnc5c(=O)[nH]c(N)nc54)[C@H](O)[C@@H]3OP(O)(=S)OC[C@H]3O[C@@H](n4ccc(N)nc4=O)[C@H](O)[C@@H]3OP(O)(=S)OC[C@H]3O[C@@H](n4cnc5c(=O)[nH]c(N)nc54)[C@H](O)[C@@H]3OP(O)(=S)OC[C@H]3O[C@@H](n4cnc5c(N)ncnc54)[C@H](O)[C@@H]3OP(O)(=S)OC[C@H]3O[C@@H](n4ccc(N)nc4=O)[C@H](O)[C@@H]3OP(O)(=S)OC[C@H]3O[C@@H](n4ccc(N)nc4=O)[C@H](O)[C@@H]3OP(O)(=S)OC[C@H]3O[C@@H](n4ccc(N)nc4=O)[C@H](O)[C@@H]3OP(O)(=S)OC[C@H]3O[C@@H](n4cc(C)c(=O)[nH]c4=O)C[C@@H]3OP(O)(=S)OC[C@H]3O[C@@H](n4ccc(N)nc4=O)[C@H](O)[C@@H]3OP(O)(=S)OC[C@H]3O[C@@H](n4cc(C)c(=O)[nH]c4=O)C[C@@H]3O)[C@@H](CO)O2)c(=O)[nH]c1=O (stereo partly specified) | 25 | 53.1 | 71.4 |
| Cc1cn([C@H]2C[C@H](OP(O)(=S)OC[C@H]3O[C@@H](n4ccc(N)nc4=O)[C@H](O)[C@@H]3OP(O)(=S)OC[C@H]3O[C@@H](n4cc(C)c(=O)[nH]c4=O)C[C@@H]3O)[C@@H](COP(O)(=S)O[C@H]3[C@@H](O)[C@H](n4ccc(N)nc4=O)O[C@@H]3COP(O)(=S)O[C@H]3[C@@H](O)[C@H](n4ccc(N)nc4=O)O[C@@H]3COP(O)(=S)O[C@H]3[C@@H](O)[C@H](n4ccc(N)nc4=O)O[C@@H]3COP(O)(=S)O[C@H]3[C@@H](O)[C@H](n4cnc5c(N)ncnc54)O[C@@H]3COP(O)(=S)O[C@H]3[C@@H](O)[C@H](n4cnc5c(=O)[nH]c(N)nc54)O[C@@H]3COP(O)(=S)O[C@H]3[C@@H](O)[C@H](n4ccc(N)nc4=O)O[C@@H]3COP(O)(=S)O[C@H]3[C@@H](O)[C@H](n4cnc5c(=O)[nH]c(N)nc54)O[C@@H]3COP(O)(=S)O[C@H]3C[C@H](n4cc(C)c(=O)[nH]c4=O)O[C@@H]3COP(O)(=S)O[C@H]3[C@@H](O)[C@H](n4cnc5c(=O)[nH]c(N)nc54)O[C@@H]3COP(O)(=S)O[C@H]3[C@@H](O)[C@H](n4ccc(N)nc4=O)O[C@@H]3COP(O)(=S)O[C@H]3[C@@H](O)[C@H](n4cnc5c(=O)[nH]c(N)nc54)O[C@@H]3COP(O)(=S)O[C@H]3[C@@H](O)[C@H](n4ccc(N)nc4=O)O[C@@H]3COP(O)(=S)O[C@H]3[C@@H](O)[C@H](n4ccc(N)nc4=O)O[C@@H]3COP(O)(=S)O[C@H]3[C@@H](O)[C@H](n4cnc5c(N)ncnc54)O[C@@H]3COP(O)(=S)O[C@H]3[C@@H](NCCCCNCCN)[C@H](n4ccc(=O)[nH]c4=O)O[C@@H]3CO)O2)c(=O)[nH]c1=O (stereo partly specified) | 57.6 | 51.4 | 65.1 |
